Source: patent publication US5336673A, “3-substituted cephem compounds” (priority 1990, dated 1994)
In brackets after ≈: the same amount, converted by molar mass.

Experiments:
[1] = biological target: T1, β-lactamase from Citrobacter freundii (Citrobacter freundii, UniProt P05193); assay: Stability against β-lactamase, relative hydrolysis; type: biochemical; details: Citrobacter freundii enzyme; 100 μM; relative(percentage), Cephaloridine taken as 100; OD at 260 nm
T1 construct: directly isolated from Enterobacter cloacae P99, E. coli TEM and Citrobacter freundii; endogenous in cells
T1 sequence (P05193 21-381): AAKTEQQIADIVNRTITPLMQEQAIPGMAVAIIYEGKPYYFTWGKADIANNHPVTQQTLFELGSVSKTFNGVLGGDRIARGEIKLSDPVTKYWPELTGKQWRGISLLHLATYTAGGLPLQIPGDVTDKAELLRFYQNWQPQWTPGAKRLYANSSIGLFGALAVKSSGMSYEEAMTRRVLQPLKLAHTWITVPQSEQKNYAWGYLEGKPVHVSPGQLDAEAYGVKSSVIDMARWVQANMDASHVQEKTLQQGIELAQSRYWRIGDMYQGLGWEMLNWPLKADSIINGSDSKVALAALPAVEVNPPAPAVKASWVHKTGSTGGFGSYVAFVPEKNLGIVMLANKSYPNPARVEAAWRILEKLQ
Protocol: (§1) In order to establish the usefulness in clinical applications of the compounds provided by the invention, the compound of Example 18 was tested for stability against the β-lactamase and for antibacterial activity on systemic infection model.
(§2) First, the stability against the β-lactamase was tested by determining the relative(percentage) hydrolysis of the compound of Example 18, relative to that of Cephaloridine, taking the absolute rate of Cephaloridine as 100.
(§3) The β-lactamases employed in the test were directly isolated from Enterobacter cloacae P99, E. coli TEM and Citrobacter freundii, and the antibiotics for comparison were Cephaloridine, Cephradine, Cefoperazone and Cefotaxime.
(§4) Cephaloridine, other known antibiotics and the compound of Example 18 were reacted with each of the enzymes isolated from the strains and the OD were determined at 260 nm, λmax of Cephaloridine. The relative hydrolysis of various compounds were calculated relative to the OD of Cephaloridine.

[2] = biological target: T2, β-lactamase from E. coli TEM (Escherichia coli, UniProt P62593); assay: Stability against β-lactamase, relative hydrolysis; type: biochemical; details: E. coli TEM enzyme; 100 μM; relative(percentage), Cephaloridine taken as 100; OD at 260 nm
T2 construct: directly isolated from Enterobacter cloacae P99, E. coli TEM and Citrobacter freundii; endogenous in cells; host or cells: E. coli TEM (plasmid-carried enzyme of the strain)
T2 sequence (P62593 24-286 limits assumed): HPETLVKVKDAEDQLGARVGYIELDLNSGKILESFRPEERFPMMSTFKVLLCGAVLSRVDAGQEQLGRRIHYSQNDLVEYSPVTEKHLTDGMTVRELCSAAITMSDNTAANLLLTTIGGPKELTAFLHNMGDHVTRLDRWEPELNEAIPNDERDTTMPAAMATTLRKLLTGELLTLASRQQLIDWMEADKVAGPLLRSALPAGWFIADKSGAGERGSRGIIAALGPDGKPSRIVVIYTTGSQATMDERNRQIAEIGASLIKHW
Protocol: as §1, §2, §3, §4

[3] = biological target: T3, β-lactamase from Enterobacter cloacae P99 (Enterobacter cloacae, UniProt P05364); assay: Stability against β-lactamase, relative hydrolysis; type: biochemical; details: Enterobacter cloacae P99 enzyme; 100 μM; relative(percentage), Cephaloridine taken as 100; OD at 260 nm
T3 construct: directly isolated from Enterobacter cloacae P99, E. coli TEM and Citrobacter freundii; endogenous in cells; host or cells: Enterobacter cloacae P99
T3 sequence (P05364 21-381): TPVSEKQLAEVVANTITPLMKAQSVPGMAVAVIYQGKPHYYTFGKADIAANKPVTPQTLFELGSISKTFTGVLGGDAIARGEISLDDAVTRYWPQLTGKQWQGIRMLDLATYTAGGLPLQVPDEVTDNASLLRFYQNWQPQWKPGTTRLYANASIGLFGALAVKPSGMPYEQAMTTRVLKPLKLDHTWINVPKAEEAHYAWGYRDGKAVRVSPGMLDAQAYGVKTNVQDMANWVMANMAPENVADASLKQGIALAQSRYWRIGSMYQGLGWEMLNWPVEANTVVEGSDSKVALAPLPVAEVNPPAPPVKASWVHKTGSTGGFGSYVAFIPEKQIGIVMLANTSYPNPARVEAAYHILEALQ
Protocol: as §3
The relative hydrolysis of various compounds were calculated relative to the OD of Cephaloridine.

[4] = system: Streptococcus pyogenes A 308; assay: Antibacterial activity, MIC by Agar dilution method, standard test strain 1; type: cell-based; details: A308, 10^7 CFU/ml, 37° C., 18 hours
Protocol: (§5) The antibacterial activity was determined by an Agar dilution method as described below.
(§6) That is, the two-fold serial dilutions of the antibacterial compounds (1000 μg compound/ml) were prepared and dispersed in Muller Hinton Agar in a petri dish to a concentration of 100~0.002 μg/ml. The culture broths of standard test strains were inoculated on the medium to a concentration 10^7 CFU/ml, and incubated at 37° C. for 18 hours. The concentration of compounds(I) at which the strains were not grown was regarded as minimum inhibition concentration (MIC).
(§7) The results of antibacterial activity test of the representative examples of the compound (I) against 20 standard test strains shown in terms of MIC were indicated in Table 1.
1. Streptococcus pyogenes A 308

[5] = system: Streptococcus pyogenes A 77; assay: Antibacterial activity, MIC by Agar dilution method, standard test strain 2; type: cell-based; details: A77, 10^7 CFU/ml, 37° C., 18 hours
Protocol: as §5, §6, §7
2. Streptococcus pyogenes A 77

[6] = system: Streptococcus faecium MD 86; assay: Antibacterial activity, MIC by Agar dilution method, standard test strain 3; type: cell-based; details: Enterococcus faecium, MD86, 10^7 CFU/ml, 37° C., 18 hours
Protocol: as §5, §6, §7
3. Streptococcus faecium MD 86

[7] = system: Staphylococcus aureus SG 511; assay: Antibacterial activity, MIC by Agar dilution method, standard test strain 4; type: cell-based; details: SG511, 10^7 CFU/ml, 37° C., 18 hours
Protocol: as §5, §6, §7
4. Staphylococcus aureus SG 511

Staphyloccus aureus 285 = assay: Antibacterial activity, MIC by Agar dilution method, standard test strain 5; type: cell-based; details: 10^7 CFU/ml, 37° C., 18 hours
Protocol: as §5, §6, §7
5. Staphyloccus aureus 285

[8] = system: Staphylococcus aureus 503; assay: Antibacterial activity, MIC by Agar dilution method, standard test strain 6; type: cell-based; details: 10^7 CFU/ml, 37° C., 18 hours
Protocol: as §5, §6, §7
6. Staphylococcus aureus 503

Escherichia coli O 55 = assay: Antibacterial activity, MIC by Agar dilution method, standard test strain 7; type: cell-based; details: O55; Escherichia coli O 55; 10^7 CFU/ml, 37° C., 18 hours; read-out: MIC
Protocol: as §5, §6, §7

Escherichia coli DC O = assay: Antibacterial activity, MIC by Agar dilution method, standard test strain 8; type: cell-based; details: Escherichia coli DC O; 10^7 CFU/ml, 37° C., 18 hours; read-out: MIC
Protocol: as §5, §6, §7

Escherichia coli DC 2 = assay: Antibacterial activity, MIC by Agar dilution method, standard test strain 9; type: cell-based; details: Escherichia coli, DC2, 18 h
Protocol: as §5, §6, §7

Escherichia coli TEM = assay: Antibacterial activity, MIC by Agar dilution method, standard test strain 10; type: cell-based; details: Escherichia coli TEM; 10^7 CFU/ml, 37° C., 18 hours; read-out: MIC
Protocol: as §5, §6, §7

Escherichia coli 1507E = assay: Antibacterial activity, MIC by Agar dilution method, standard test strain 11; type: cell-based; details: Escherichia coli 1507E; 10^7 CFU/ml, 37° C., 18 hours; read-out: MIC
Protocol: as §5, §6, §7

[9] = system: Pseudomonas aeruginosa 9027; assay: Antibacterial activity, MIC by Agar dilution method, standard test strain 12; type: cell-based; details: 10^7 CFU/ml, 37° C., 18 hours
Protocol: as §5, §6, §7
12. Pseudomonas aeruginosa 9027

[10] = system: Pseudomonas aeruginosa 1592E; assay: Antibacterial activity, MIC by Agar dilution method, standard test strain 13; type: cell-based; details: 10^7 CFU/ml, 37° C., 18 hours
Protocol: as §5, §6, §7
13. Pseudomonas aeruginosa 1592E

[11] = system: Pseudomonas aeruginosa 1771; assay: Antibacterial activity, MIC by Agar dilution method, standard test strain 14; type: cell-based; details: 10^7 CFU/ml, 37° C., 18 hours
Protocol: as §5, §6, §7
14. Pseudomonas aeruginosa 1771

[12] = system: Pseudomonas aeruginosa 1771M; assay: Antibacterial activity, MIC by Agar dilution method, standard test strain 15; type: cell-based; details: 18 h
Protocol: as §5, §6, §7
15. Pseudomonas aeruginosa 1771M

Salmonella typhimurium = assay: Antibacterial activity, MIC by Agar dilution method, standard test strain 16; type: cell-based; details: Salmonella enterica, 10^7 CFU/ml, 37° C., 18 hours
Protocol: as §5, §6, §7
16. Salmonella typhimurium

Klebsiella oxytoca 1082E = assay: Antibacterial activity, MIC by Agar dilution method, standard test strain 17; type: cell-based; details: 10^7 CFU/ml, 37° C., 18 hours
Protocol: as §5, §6, §7

[13] = system: Klebsiella aerogenes 1522E; assay: Antibacterial activity, MIC by Agar dilution method, standard test strain 18; type: cell-based; details: Klebsiella aerogenes 1522E; 10^7 CFU/ml, 37° C., 18 hours; read-out: MIC
Protocol: as §5, §6, §7
18. Klebsiella aerogenes 1522E

Enterobacter cloacae P99 = assay: Antibacterial activity, MIC by Agar dilution method, standard test strain 19; type: cell-based; details: P99, 18 h
Protocol: as §5, §6, §7
19. Enterobacter cloacae P99

[14] = system: Enterobacter cloacae 1321E; assay: Antibacterial activity, MIC by Agar dilution method, standard test strain 20; type: cell-based; details: Enterobacter cloacae 1321E; 10^7 CFU/ml, 37° C., 18 hours; read-out: MIC
Protocol: as §5, §6, §7
20. Enterobacter cloacae 1321E

enterobacteria = details: against the enterobacteria; cited from earlier work
Staphylococcus = details: against Staphylococcus; cited from earlier work
Pseudomonas = details: against Pseudomonas, compared with other known cephalosporins; cited from earlier work

CCN1CCN(C(=O)N[C@@H](C(=O)N[C@@H]2C(=O)N3C(C(=O)O)=C(CSc4nnnn4C)CS[C@H]23)c2ccc(O)cc2)C(=O)C1=O [Cefoperazone]
Relative hydrolysis by β-lactamase [1]: 1.2
Relative hydrolysis by β-lactamase [2]: 38.6

O=C(Cc1cccs1)N[C@@H]1C(=O)N2C(C(=O)[O-])=C(C[n+]3ccccc3)CS[C@H]12 [Cephaloridine]
Relative hydrolysis by β-lactamase [3]: 100
Relative hydrolysis by β-lactamase [1]: 100
Relative hydrolysis by β-lactamase [2]: 100

CO/N=C(\C(=O)N[C@@H]1C(=O)N2C(C(=O)O)=C(COC(C)=O)CS[C@H]12)c1csc(N)n1 [Cefotaxime, reference compound]
MIC [4]: 0.007 µg/mL (≈ 0.0154 µM)
MIC [5]: 0.004 µg/mL (≈ 0.00878 µM)
MIC [6]: 100 µg/mL (≈ 220 µM)
MIC [7]: 1.56 µg/mL (≈ 3.43 µM)
MIC (Staphyloccus aureus 285): 1.56 µg/mL (≈ 3.43 µM)
MIC [8]: 0.781 µg/mL (≈ 1.71 µM)
MIC (Escherichia coli O 55): 0.007 µg/mL (≈ 0.0154 µM)
MIC (Escherichia coli DC O): 0.025 µg/mL (≈ 0.0549 µM)
MIC (Escherichia coli DC 2): 0.013 µg/mL (≈ 0.0285 µM)
MIC (Escherichia coli TEM): 0.025 µg/mL (≈ 0.0549 µM)
MIC (Escherichia coli 1507E): 0.025 µg/mL (≈ 0.0549 µM)
MIC [9]: 12.5 µg/mL (≈ 27.4 µM)
MIC [10]: 12.5 µg/mL (≈ 27.4 µM)
MIC [11]: 6.25 µg/mL (≈ 13.7 µM)
MIC [12]: 0.098 µg/mL (≈ 0.215 µM)
MIC (Salmonella typhimurium): 0.025 µg/mL (≈ 0.0549 µM)
MIC (Klebsiella oxytoca 1082E): 0.781 µg/mL (≈ 1.71 µM)
MIC [13]: 0.013 µg/mL (≈ 0.0285 µM)
MIC (Enterobacter cloacae P99): 100 µg/mL (≈ 220 µM)
MIC [14]: 0.013 µg/mL (≈ 0.0285 µM)
Relative hydrolysis by β-lactamase [3]: 0.0
Relative hydrolysis by β-lactamase [1]: 0.6
Relative hydrolysis by β-lactamase [2]: 0.6
antibacterial activity (in words) (enterobacteria): strong antibacterial activities

CC(C)(O/N=C(\C(=O)N[C@@H]1C(=O)N2C(C(=O)[O-])=C(C[n+]3ccccc3)CS[C@H]12)c1csc(N)n1)C(=O)O [Ceftazidime]
antibacterial activity (in words) (Staphylococcus): poor antibacterial activity
antibacterial activity (in words) (Pseudomonas): relatively stronger
antibacterial activity (in words) (enterobacteria): strong antibacterial activities

CO/N=C(\C(=O)N[C@@H]1C(=O)N2C(C(=O)O)=C(CSc3nc(=O)c(=O)[nH]n3C)CS[C@H]12)c1csc(N)n1 [Ceftriaxone]
antibacterial activity (in words) (enterobacteria): strong antibacterial activities

CO/N=C(\C(=O)N[C@@H]1C(=O)N2C(C(=O)O)=C(CSc3nnnn3C)CS[C@H]12)c1csc(N)n1 [Cefmenoxime]
antibacterial activity (in words) (enterobacteria): strong antibacterial activities

CC1=C(C(=O)O)N2C(=O)[C@@H](NC(=O)[C@H](N)C3=CCC=CC3)[C@H]2SC1 [Cephradine]
Relative hydrolysis by β-lactamase [3]: 14.9
Relative hydrolysis by β-lactamase [1]: 13.6
Relative hydrolysis by β-lactamase [2]: 0.8
